Results from patent US12441720B2, “Modulators of the integrated stress response pathway” (EVOTEC INTERNATIONAL GMBH, priority 2020, dated 2025).
pIC50: −log10 of the molar value.

How the values were obtained:
ATF4 = experiment: HEK-ATF4 High Content Imaging assay (prevention of Tunicamycin induced ISR); format: cell-based; details: Homo sapiens, wild-type HEK293 cells, 6 hrs incubation, ATF4 signal ratio nucleus/cytoplasm, read-out: Activity (IC50, HEK-ATF4 readout)
Protocol: Example compounds were tested in the HEK-ATF4 High Content Imaging assay to assess their pharmacological potency to prevent Tunicamycin induced ISR. Wild-type HEK293 cells were plated in 384-well imaging assay plates at a density of 12,000 cells per well in growth medium (containing DMEM/F12, 10% FBS, 2 mM L-Glutamine, 100 U/mL Penicillin—100 μg/mL Streptomycin) and incubated at 37° C., 5% CO2. 24-hrs later, the medium was changed to 50 μl assay medium per well (DMEM/F12, 0.3% FBS, 2 mM L-Glutamine, 100 U/mL Penicillin—100 μg/mL Streptomycin). Example compounds were serially diluted in dimethyl sulfoxide (DMSO), spotted into intermediate plates and prediluted with assay medium containing 3.3 μM Tunicamycin to give an 11-fold excess of final assay concentration. In addition to the example compound testing area, the plates also contained multiples of control wells for assay normalization purposes, wells containing Tunicamycin but no example compounds (High control), as well as wells containing neither example compound nor Tunicamycin (Low control). The assay was started by transferring 5 μl from the intermediate plate into the assay plates, followed by incubation for 6 hrs at 37° C., 5% CO2. Subsequently, cells were fixed (4% PFA in PBS, 20 min at room temperature) and submitted to indirect ATF4 immunofluorescence staining (primary antibody rabbit anti ATF4, clone D4B8, Cell Signaling Technologies; secondary antibody Alexa Fluor 488 goat anti-rabbit IgG (H+L), Thermofisher Scientific). Nuclei were stained using Hoechst dye (Thermofisher Scientific), and plates were imaged on an Opera Phenix High Content imaging platform equipped with 405 nm and 488 nm excitation. Finally, images were analyzed using script based algorithms. The main readout HEK-ATF4 monitored the ATF4 signal ratio between nucleus and cytoplasm. Tunicamycin induced an increase in the overall ATF4 ratio signal, which was prevented by ISR modulating example compounds. In addition, HEK-CellCount readout was derived from counting the number of stained nuclei corresponding to healthy cells. This readout served as an internal toxicity control.

[1] = target: T1, human ERG potassium channel (hERG) (Homo sapiens, UniProt Q12809); experiment: hERG tail current recording, Rapid ICE automated patch-clamp (QPatch HTX); format: cell-based; details: recombinant HEK293 cell line stably transfected with hERG cDNA; test concentrations 0.3, 3 and 30 μM; read-out: hERG Activity (IC50, tail current inhibition)
T1 construct: expressed in transfected cells; host or cells: HEK293, stably transfected, tetracycline-inducible
Protocol: The potency of the example compounds in inhibiting human ERG potassium channel (hERG) tail current was assessed in a recombinant HEK293 cell line stably transfected with hERG cDNA under an inducible promoter, using Rapid ICE (rapid ion channel electrophysiology) assay. Rapid ICE is an automated patch-clamp assay utilizing the QPatch HTX system (Sophion Bioscience A/S). Briefly, inducible HEK hERG cells were cultivated in minimum essential medium supplemented with 10% FBS, 1% non-essential amino acids, 1% sodium pyruvate, 2 mM 1-glutamine, 15 μg/mL blasticidin, and 100 μg/mL hygromycin. hERG channel expression induction was obtained by adding 10 μg/mL tetracycline for 24, 48, or 72 h before recordings.
On the day of the experiment, cells were detached with TrypLE and prepared to be loaded on the instrument. Cells were resuspended in 7 mL of Serum-Free Media containing 25 mM Hepes and soybean trypsin inhibitor and immediately placed in the cell storage tank of the machine. The composition of the extracellular buffer was (mM): NaCl 137, KCl 4, CaCl2 1.8, MgCl2 1.0, d-glucose 10, N-2-hydroxyethylpiperazine-N′-2-ethanesulfonic acid (HEPES) 10, pH 7.4 with 1 M NaOH. The composition of the intracellular solution was (mM): KCl 130, MgCl2 1.0, ethylene glycol-bis(β-aminoethyl ether)-N,N,N′,N′-tetraacetic acid (EGTA) 5, MgATP 5, HEPES 10, pH 7.2 with 1 M KOH. The voltage protocol included the following steps: step from −80 to −50 mV for 200 ms, +20 mV for 4.8 s, step to −50 mV for 5 s, then step to the holding potential of […]. Example compounds were dissolved in DMSO and diluted in extracellular buffer to achieve final test concentrations (0.3, 3, and 30 μM) in 0.3% DMSO. The voltage protocol was run and recorded continuously during the experiment. The vehicle, corresponding to 0.3% DMSO in extracellular buffer was then applied for 3 min, followed by the example compound in triplicate. The standard combined exposure time was 5 min. The average of tail current amplitude values recorded from four sequential voltage pulses was used to calculate for each cell the effect of the example compound by calculating the residual current (% control) compared with vehicle pretreatment. Data were reported as % inhibition for each concentration tested, and IC50 values were estimated using QPatch software. At least two cells were tested, and even more if results diverged.

T1 sequence (Q12809 whole entry): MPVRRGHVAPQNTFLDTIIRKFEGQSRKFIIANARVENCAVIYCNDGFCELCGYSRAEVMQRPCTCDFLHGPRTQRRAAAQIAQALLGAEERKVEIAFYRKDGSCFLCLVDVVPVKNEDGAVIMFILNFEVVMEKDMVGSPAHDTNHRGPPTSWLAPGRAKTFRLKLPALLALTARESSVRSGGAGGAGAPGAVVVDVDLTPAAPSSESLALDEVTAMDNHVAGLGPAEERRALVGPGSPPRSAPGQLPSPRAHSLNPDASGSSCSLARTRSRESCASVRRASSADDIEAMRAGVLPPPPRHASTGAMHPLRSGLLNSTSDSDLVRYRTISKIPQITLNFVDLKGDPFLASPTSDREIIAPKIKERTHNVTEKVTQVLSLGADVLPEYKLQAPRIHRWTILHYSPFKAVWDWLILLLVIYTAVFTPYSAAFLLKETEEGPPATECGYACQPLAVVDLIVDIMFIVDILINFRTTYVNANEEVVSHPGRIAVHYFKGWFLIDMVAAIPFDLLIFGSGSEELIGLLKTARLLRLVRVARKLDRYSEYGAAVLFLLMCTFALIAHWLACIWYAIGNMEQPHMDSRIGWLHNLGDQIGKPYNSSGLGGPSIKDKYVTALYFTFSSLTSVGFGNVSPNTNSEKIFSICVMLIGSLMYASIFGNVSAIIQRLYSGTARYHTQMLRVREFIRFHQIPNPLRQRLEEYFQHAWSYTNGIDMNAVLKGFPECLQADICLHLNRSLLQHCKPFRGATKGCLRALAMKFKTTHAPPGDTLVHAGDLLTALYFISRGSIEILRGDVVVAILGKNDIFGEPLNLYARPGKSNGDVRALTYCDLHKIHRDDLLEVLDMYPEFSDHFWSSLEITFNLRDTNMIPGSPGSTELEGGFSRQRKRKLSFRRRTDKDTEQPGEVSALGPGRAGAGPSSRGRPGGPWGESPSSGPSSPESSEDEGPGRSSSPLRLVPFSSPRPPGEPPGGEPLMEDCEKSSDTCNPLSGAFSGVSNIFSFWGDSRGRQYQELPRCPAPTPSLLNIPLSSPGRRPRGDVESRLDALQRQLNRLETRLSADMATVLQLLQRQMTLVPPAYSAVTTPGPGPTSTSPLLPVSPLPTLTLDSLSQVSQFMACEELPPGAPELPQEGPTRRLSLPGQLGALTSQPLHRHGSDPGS

| SMILES | pIC50 (ATF4) | pIC50 [1] |
| --- | --- | --- |
| O=C(COc1ccc(Cl)c(F)c1)N[C@H]1CO[C@H](c2cn(-c3ccc(Cl)cc3)nn2)OC1 [Example 4, 2-(4-chloro-3-fluorophenoxy)-N-[trans-2-[1-(4-chlorophenyl)-1H-1,2,3-triazol-4-yl]-1,3-dioxan-5-yl]acetamide] | 5.70 to 6.30 |  |
| O=C(COc1ccc(Cl)c(F)c1)N[C@H]1CO[C@H](c2nnc(OCCCC(F)(F)F)o2)OC1 [Example 5, 2-(4-chloro-3-fluorophenoxy)-N-[trans-2-[5-(4,4,4-trifluorobutoxy)-1,3,4-oxadiazol-2-yl]-1,3-dioxan-5-yl]acetamide] | 6.30 to 9.00 | 5.30 to 6.00 |
| O=C(COc1ccc(Cl)c(F)c1)N[C@H]1CO[C@H](c2nnc([C@H]3C[C@@H](OC(F)(F)F)C3)o2)OC1 [Example 2, 2-(4-chloro-3-fluorophenoxy)-N-[trans-2-{5-[cis-3-(trifluoromethoxy)cyclobutyl]-1,3,4-oxadiazol-2-yl}-1,3-dioxan-5-yl]acetamide] | 6.30 to 9.00 | < 5.30 |
| O=C(COc1ccc(Cl)c(Cl)c1)N[C@H]1CO[C@H](c2nnc(OCCOC(F)(F)F)o2)OC1 [Example 9, 2-(3,4-dichlorophenoxy)-N-[trans-2-{5-[2-(trifluoromethoxy)ethoxy]-1,3,4-oxadiazol-2-yl}-1,3-dioxan-5-yl]acetamide] | 6.30 to 9.00 | < 5.30 |
| O=C(COc1ccc(Cl)c(F)c1)N[C@H]1CO[C@H](c2nnc(-c3ccc(Cl)cc3)o2)OC1 [Example 1, 2-(4-chloro-3-fluorophenoxy)-N-[trans-2-[5-(4-chlorophenyl)-1,3,4-oxadiazol-2-yl]-1,3-dioxan-5-yl]acetamide] | 6.30 to 9.00 |  |
| O=C(COc1ccc(Cl)c(F)c1)N[C@H]1CO[C@@H](c2cn(-c3ccc(Cl)cc3)nn2)OC1 [Example 3, 2-(4-chloro-3-fluorophenoxy)-N-[cis-2-[1-(4-chlorophenyl)-1H-1,2,3-triazol-4-yl]-1,3-dioxan-5-yl]acetamide] | 4.82 to 5.70 |  |
| O=C(COc1ccc(Cl)c(F)c1)N[C@H]1CO[C@H](c2nnc(N3CC(OC(F)(F)F)C3)o2)OC1 [Example 7, 2-(4-chloro-3-fluorophenoxy)-N-[trans-2-{5-[3-(trifluoromethoxy)azetidin-1-yl]-1,3,4-oxadiazol-2-yl}-1,3-dioxan-5-yl]acetamide] | 6.30 to 9.00 | < 5.30 |
| O=C(COc1ccc(Cl)c(F)c1)N[C@H]1CO[C@H](c2nnc(OCCOC(F)(F)F)o2)OC1 [Example 6, 2-(4-chloro-3-fluorophenoxy)-N-[trans-2-{5-[2-(trifluoromethoxy)ethoxy]-1,3,4-oxadiazol-2-yl}-1,3-dioxan-5-yl]acetamide] | 6.30 to 9.00 | < 5.30 |
| O=C(COc1cnc(Cl)c(F)c1)N[C@H]1CO[C@H](c2nnc([C@H]3C[C@@H](OC(F)(F)F)C3)o2)OC1 [Example 10, 2-[(6-chloro-5-fluoro-3-pyridyl)oxy]-N-[trans-2-[5-[cis-3-(trifluoromethoxy)cyclobutyl]-1,3,4-oxadiazol-2-yl]-1,3-dioxan-5-yl]acetamide] | 4.82 to 5.70 | < 5.30 |
| O=C(COc1ccc(C(F)F)c(Cl)c1)N[C@H]1CO[C@H](c2nnc(N3CC(OC(F)(F)F)C3)o2)OC1 [Example 8, 2-[3-chloro-4-(difluoromethyl)phenoxy]-N-[trans-2-{5-[3-(trifluoromethoxy)azetidin-1-yl]-1,3,4-oxadiazol-2-yl}-1,3-dioxan-5-yl]acetamide] | 6.30 to 9.00 | < 5.30 |
